Results reported in publication PMC9246773, “Assessing the Activity of Antimicrobial Peptides Against Common Marine Bacteria Located in Rotifer (Brachionus plicatilis) Cultures” (Probiotics and Antimicrobial Proteins, 2022).
No end group written: not given here.

Assays:
Type in all cases: cell-based
[1] = tested on: Vibrio harveyi (ATCC 35084); details: ATCC 35084, 48 h
Method: (§1) A range of bacterial species with the potential to be transferred to developing fish larvae as pathogens or probiotics were selected for use in the study (Table 2). Bacterial isolates were stored at −80 °C and thawed, and 25 µL of the isolates was spread onto marine salt agar (MSA) media. All isolates were incubated at 25 °C for 18 h to reach mid-log growth phase. All isolates were sub-cultured and identified using mass spectrometry (MALDI-TOF) using the BioTyper and MBT 8468 library (Bruker Pty Ltd). The isolate Tenacibaculum discolor was plated on Anacker and Oradal’s marine (AOM) media, incubated for 48 h and identified using the aforementioned method. Bacterial isolates were suspended in sterile saline (0.75% NaCl w/v) to 0.5 McFarland standard. […] The bacterial isolates T. discolor and Pseudoalteromonas sp. require marine salts to grow and were not added to MHB (0‰). The isolate T. discolor requires low nutrients to grow, therefore, a separate MHB (25‰) was prepared at a diluted ratio of 1 part MHB and 7 parts artificial seawater (25‰).
(§2) The protocol was followed to determine the minimum inhibitory concentration (MIC) of the selected peptides. Two MIC assays were performed, firstly to determine whether each peptide precipitated in MHB and thereby required acetic acid adjustments (supplementary materials) and secondly, to determine the antimicrobial activity of each peptide in artificial seawater (25‰). Peptide stock solutions (1.3 mg mL^−1) were made by diluting the peptides in sterile deionised water. MHB was made with deionised water to reach a concentration of approaching 0‰ and artificial sea salts (Sigma-Aldrich® S9883) to reach a salinity of 25‰.
(§3) A broth microdilution protocol was followed to test whether the AMPs precipitated in MHB. The isolates T. discolor and Pseudoalteromonas were excluded from this assay because they required marine salts for growth. The peptides HHC10 and HHC36 previously required acetic acid adjustments according to [63] and were not trialled in this assay. To test if peptides required acetic acid, each peptide was diluted 1:2 in acetic acid (0.02% acetic acid w/v, containing 0.4% BSA) solution. In a 96-well polypropylene microtitre plates (Costar® 3879), 100 µL of this peptide stock was added to the first well for each bacterial isolate tested and serially diluted 2-fold with acetic acid (0.01% acetic acid w/v, containing 0.2% BSA). From each well, 10 µL of each peptide concentration was added to the corresponding wells of a new 96-well microtitre plate. From each of the bacterial suspensions in MHB (0‰), 90 µL was added to each well. […] From each of the bacterial suspensions in MHB (0‰), 50 µL was added to each well. All peptide concentrations ranged from 0.125 - 65µg mL^-1 and the bacterial suspension in each well was approximately 5 × 10^5 CFU mL^-1. Antimicrobial peptides that have an MIC value two or more dilutions higher in the assay with no acetic acid, compared to the assay with acetic acid, require acetic acid adjustments. The 96-well plates were incubated at 25 °C and read at 24 and 48 hours. The MIC was visually determined using a Sensititre™ Vizion™ Digital MIC Viewing System (Thermo Scientific™), and the lowest AMP concentration that had no bacterial growth was recorded as the MIC after 48 hours. Each bacterium was trialled in duplicate.

Vibrio scophthalmi [2] = details: 48 h
Method: as §1, §2, §3

[3] = tested on: Escherichia coli (ATCC 25922); details: ATCC 25922, 48 h
Method: as §1, §2, §3

Vibrio harveyi [4] = details: 48 h
Method: as §1, §2, §3

Vibrio rotiferianus [5] = details: 48 h
Method: as §1, §2, §3

Vibrio alginolyticus [6] = details: 48 h
Method: as §1, §2, §3

Shewanella sp. [7] = details: 48 h
Method: as §1, §2, §3

Tenacibaculum discolor = details: 48 h
Method: as §1, §2
(§4) Once the acetic acid requirement for each peptide was determined (Table 3), the antimicrobial activity of each peptide was tested at a salinity of 0‰ and 25‰ for all bacterial isolates. A stock solution for peptides that required acetic acid was prepared by a 1:2 dilution in acetic acid (0.02% acetic acid w/v, containing 0.4% BSA) solution. In a 96-well polypropylene microtitre plates (Costar® 3879), 100 µL of this peptide stock was added to the first well for each bacterial isolate tested and serially diluted twofold with acetic acid (0.01% acetic acid w/v, containing 0.2% BSA). From each well, 10 µL of each peptide concentration was added to the corresponding wells of a new 96-well microtitre plate. From each of the bacterial suspensions (0‰), 90 µL was added to each well. […] Twofold serial dilutions were made with MHB (0‰). From each of the bacterial suspensions (0‰), 50 µL was added to each well. The same method was followed for testing peptides in MHB at 25‰. All peptide concentrations ranged from 0.125 to 65 µg mL^−1, and the bacterial suspension in each well was approximately 5 × 10^5 CFU mL^−1. The different salinities were used to compare any differences in antimicrobial activity in 0‰ and 25‰ water. […] Each bacterium was trialled in duplicate.

[8] = tested on: Vibrio harveyi (ATCC 35084); details: ATCC 35084, 48 h; remark: listed apart in the source
Method: as §1, §2, §4

Pseudoalteromonas sp. = details: 48 h
Method: as §1, §2, §4

Vibrio scophthalmi [9] = details: 48 h; remark: listed apart in the source
Method: as §1, §2, §4

[10] = tested on: Escherichia coli (ATCC 25922); details: ATCC 25922, 48 h; remark: listed apart in the source
Method: as §1, §2, §4

Vibrio harveyi [11] = details: 48 h; remark: listed apart in the source
Method: as §1, §2, §4

Vibrio rotiferianus [12] = details: 48 h; remark: listed apart in the source
Method: as §1, §2, §4

Vibrio alginolyticus [13] = details: 48 h; remark: listed apart in the source
Method: as §1, §2, §4

Shewanella sp. [14] = details: 48 h; remark: listed apart in the source
Method: as §1, §2, §4

bacterial isolates [15] = details: 48 h
Method: as §1, §2
Once the acetic acid requirement for each peptide was determined (Table 3), the antimicrobial activity of each peptide was tested at a salinity of 0‰ and 25‰ for all bacterial isolates. A stock solution for peptides that required acetic acid was prepared by a 1:2 dilution in acetic acid (0.02% acetic acid w/v, containing 0.4% BSA) solution. In a 96-well polypropylene microtitre plates (Costar® 3879), 100 µL of this peptide stock was added to the first well for each bacterial isolate tested and serially diluted twofold with acetic acid (0.01% acetic acid w/v, containing 0.2% BSA). From each well, 10 µL of each peptide concentration was added to the corresponding wells of a new 96-well microtitre plate. From each of the bacterial suspensions (0‰), 90 µL was added to each well. […] Twofold serial dilutions were made with MHB (0‰). From each of the bacterial suspensions (0‰), 50 µL was added to each well. The same method was followed for testing peptides in MHB at 25‰. All peptide concentrations ranged from 0.125 to 65 µg mL^−1, and the bacterial suspension in each well was approximately 5 × 10^5 CFU mL^−1. […]

bacterial isolates [16] = details: 48 h; remark: listed apart in the source
Method: as §1, §2, §4

Substance | MIC V. harveyi ATCC 35084, Acetic [1] [µg/mL] | MIC V. harveyi ATCC 35084, No acetic [1] [µg/mL] | MIC V. scophthalmi, Acetic (Vibrio scophthalmi [2]) [µg/mL] | MIC V. scophthalmi, No acetic (Vibrio scophthalmi [2]) [µg/mL] | MIC T. discolor, salinity 25‰ (Tenacibaculum discolor) [µg/mL] | MIC V. harveyi ATCC 35084, salinity 0‰ [8] [µg/mL] | MIC V. harveyi ATCC 35084, salinity 25‰ [8] [µg/mL] | MIC Pseudoalteromonas sp., salinity 25‰ (Pseudoalteromonas sp.) [µg/mL] | MIC V. scophthalmi, salinity 0‰ (Vibrio scophthalmi [9]) [µg/mL] | MIC V. scophthalmi, salinity 25‰ (Vibrio scophthalmi [9]) [µg/mL] | MIC E. coli ATCC 25922, salinity 0‰ [10] [µg/mL] | MIC E. coli ATCC 25922, salinity 25‰ [10] [µg/mL] | MIC V. harveyi, salinity 0‰ (Vibrio harveyi [11]) [µg/mL] | MIC V. harveyi, salinity 25‰ (Vibrio harveyi [11]) [µg/mL] | MIC V. rotiferianus, salinity 0‰ (Vibrio rotiferianus [12]) [µg/mL] | MIC V. rotiferianus, salinity 25‰ (Vibrio rotiferianus [12]) [µg/mL] | MIC V. alginolyticus, salinity 0‰ (Vibrio alginolyticus [13]) [µg/mL] | MIC V. alginolyticus, salinity 25‰ (Vibrio alginolyticus [13]) [µg/mL] | MIC Shewanella sp., salinity 0‰ (Shewanella sp. [14]) [µg/mL] | MIC Shewanella sp., salinity 25‰ (Shewanella sp. [14]) [µg/mL] | other results
ILVRWIRWRIQW-NH2 [Peptide 3002] | 4.06 | 2.03 | 1.02 | 0.51 | 32.5 | 8.13 | > 65 | 65 | 2.03 | > 65 | 65 | > 65 | 8.13 | > 65 | 8.13 | > 65 | 8.13 | > 65 | 8.13 | > 65 | MIC E. coli ATCC 25922, Acetic [3]: 8.13 µg/mL; MIC E. coli ATCC 25922, No acetic [3]: 16.25 µg/mL; MIC V. harveyi, Acetic (Vibrio harveyi [4]): 4.06 µg/mL; MIC V. harveyi, No acetic (Vibrio harveyi [4]): 2.03 µg/mL; MIC V. rotiferianus, Acetic (Vibrio rotiferianus [5]): 4.06 µg/mL; MIC V. rotiferianus, No acetic (Vibrio rotiferianus [5]): 2.03 µg/mL; MIC V. alginolyticus, Acetic (Vibrio alginolyticus [6]): 4.06 µg/mL; MIC V. alginolyticus, No acetic (Vibrio alginolyticus [6]): 2.03 µg/mL; MIC Shewanella sp., Acetic (Shewanella sp. [7]): 8.13 µg/mL; MIC Shewanella sp., No acetic (Shewanella sp. [7]): 4.06 µg/mL; MIC in low salt conditions (over the bacterial isolates) (bacterial isolates [15]): 1 to 10 µg/mL
KKWQLLIKWKLR-NH2 [Peptide 3008] | 16.25 | 16.25 | 0.51 | 1.02 | > 65 | 8.13 | > 65 | > 65 | < 0.13 | 32.5 | 8.13 | > 65 | 4.06 | > 65 | 2.03 | > 65 | 2.03 | > 65 | 16.25 | 32.5 | MIC E. coli ATCC 25922, Acetic [3]: > 65 µg/mL; MIC E. coli ATCC 25922, No acetic [3]: > 65 µg/mL; MIC V. harveyi, Acetic (Vibrio harveyi [4]): 4.06 µg/mL; MIC V. harveyi, No acetic (Vibrio harveyi [4]): 4.06 µg/mL; MIC V. rotiferianus, Acetic (Vibrio rotiferianus [5]): 2.03 µg/mL; MIC V. rotiferianus, No acetic (Vibrio rotiferianus [5]): 1.02 µg/mL; MIC V. alginolyticus, Acetic (Vibrio alginolyticus [6]): 1.02 µg/mL; MIC V. alginolyticus, No acetic (Vibrio alginolyticus [6]): 2.03 µg/mL; MIC Shewanella sp., Acetic (Shewanella sp. [7]): 8.13 µg/mL; MIC Shewanella sp., No acetic (Shewanella sp. [7]): 16.25 µg/mL; MIC in artificial seawater (25‰) (over the bacterial isolates) (bacterial isolates [16]): 32.5 µg/mL
KRWWKWIRW-NH2 [HHC10] |  |  |  |  | > 65 | 4.06 | > 65 | > 65 | 2.03 | > 65 | 4.06 | > 65 | 8.13 | > 65 | 2.03 | > 65 | 2.03 | > 65 | 4.06 | > 65 | MIC in artificial seawater (25‰) (over the bacterial isolates) (bacterial isolates [16]): > 65 µg/mL; MIC in low salt conditions (over the bacterial isolates) (bacterial isolates [15]): 1 to 10 µg/mL
